The values below come from PMC9119314 (Frontiers in Pharmacology, 2022).

Data set [1] relates to P. berghei sporozoites. Kind of data set: P. berghei liver-stage assay (sporozoites in Hep G2-A16-CD81 cells, luciferase). The following applies: for IC50: Plasmodium berghei, HepG2-A16-CD81, sporozoites in Hep G2-A16-CD81 cells, 48 h post infection, ± SE, read-out: Activity against the P. berghei liver stage, IC50. Format: cell-based, Plasmodium berghei. As to the method: Briefly, 3000 Hep G2-A16-CD81 cells/well were seeded in 1536-well plates (Greiner Bio). 50 nL of the test and control compound diluted in DMSO was added and incubated for 24 h. […] The plates were centrifuged for 5 min at 330 × g and incubated at 37°C. Forty-eight hours post infection, 2 μL of luciferin reagent (Promega BrightGlo) was added to each well, and the luciferase activity was detected using a Perkin Elmer Envision plate reader. […] To counter-screen for cellular toxicity, Hep G2-A16-CD81 cells were seeded as above for the sporozoite liver-stage assay but in the absence of sporozoites. Toxicity measurements were performed by adding Promega CellTiterGlo® (2 μL), followed by luminescence measurements. Curve fitting was done as described above using puromycin (25 μM) as a positive control and DMSO as negative control wells.

Data set [2] can be described thus: In vitro activity against T. brucei bloodstream forms (resazurin). It counts as cell-based, Trypanosoma brucei. The following applies: human; SI compared with Hep G cells (Table 1); read-out: Selectivity index (SI), T. brucei compared with cytotoxicity to Hep G cells (converted). As to the method: (§1) Bloodstream form T. brucei (strain 427, derivative 221) was maintained in modified Iscove’s medium, as described previously ([Taylor et al., 2013]). […] The parasites were diluted to 1 × 10^4 ml^−1, the compound was added at a range of concentrations, and the plates were incubated at 37°C in 5% CO2 for 48 h. Resazurin was then added to each well, and the plates were incubated for a further 16 h. Fluorescence intensities were determined using a BMG FLUOstar Omega plate reader (excitation 545 nm, emission 590 nm), and data were analyzed using Graph Pad Prism 9.0 software. […]
On the technique in general: The colour change of resazurin is a common sign of viable cells or microbes.

Data set [3] relates to T. brucei bloodstream forms (strain 427, derivative 221). The data set is described as above. Conditions: Trypanosoma brucei, bloodstream forms, hydrochloride salts except 6 (citrate), ± SE; for IC50: 64 h, 48 h + 16 h resazurin. Format: cell-based, Trypanosoma brucei. As to the method: as §1
Data set [4] relates to A2780/ADR cells. Kind of data set: Chemosensitivity MTT assay, doxorubicin-resistant A2780/ADR. It counts as cell-based. Conditions: Homo sapiens, 96 h, ± SE, read-out: Activity against A2780/ADR cells, IC50. As to the method: A modified MTT assay was used ([Shnyder et al., 2008]). Cells (2 × 10^4/ml) were inoculated into each well of a 96-well plate and incubated for 24 h at 37°C in a humidified atmosphere containing 5% CO2. Compounds were then added at a range of concentrations to each well, and the plates were then incubated for a further 96 h. After 96 h, the culture medium was removed and 200 μL of 0.5 mg ml^–1 MTT solution (Sigma) in the complete medium was added to each well. Following a further 4 h incubation, the solution was removed from each well and 150 μL of DMSO was added to solubilize the formazan crystals resulting from MTT conversion. The absorbance values for the resulting solutions were read at 540 nm on an Azure 96-well microplate reader (Azure Biosynstems Inc.), and the cell survival was calculated as the absorbance of treated cells divided by the control.
For orientation: Tetrazolium dyes change colour on reduction, which living cells bring about.

In data set [5] the test system is P. falciparum (NF54-Mal8p1.16-GFP-Luc) late-stage gametocytes. Kind of data set: microbe, parasite or virus in culture. Format: cell-based, Plasmodium falciparum. As to the method: Gametocytes were produced as per [Reader et al. (2015]; [2021)] from P. falciparum NF54-Mal8p1.16-GFP-Luc ([Adjalley et al., 2011]), and each batch was validated for viability and functionality before use. […] Drug assays were set up on day 10 (representing late gametocytes, >90% stage IV/V gametocytes) using a 2–3% gametocytemia, 1.5% hematocrit culture. The drug pressure was for 48 h under stationary, hypoxic conditions (90% N2, 5% O2, and 5% CO2) at 37°C. Luciferase activity was determined in 30 μL parasite lysates by adding 30 μL luciferin substrate (Promega Luciferase Assay System) at room temperature and detection of resultant bioluminescence at an integration constant of 10 s with the GloMax®-Multi + Detection System with Instinct® Software. Methylene blue (5 μM) and an internal control (MMV390048, 5 μM) were routinely included as controls.

“And” between values parts separate entries of the source, which are not always exact repeats. Equal entries are not always repeated.

What is called IC90 is the concentration needed for an effect of 90%. Take `C[n+]1c2ccccc2cc2[n-]c3c(Br)cc(Br)cc3c21` [Compound 4, 7,9-Dibromocryptolepine]: in data set [1], the IC50 turned out to be 5820 ± 260 nM and the “Selectivity index (SI), P. berghei liver stage with respect to Hep G cells” value is 1.17. Moreover, the selectivity ratio at 48 h in data set [2] was 240. In data set [3], the IC50 worked out at 28.3 ± 0.5 nM and the IC90 is 40.3 ± 6.1 nM. Besides, in data set [4], the IC50 was determined as 310 ± 60 nM.
For `C[n+]1c2ccccc2cc2[n-]c3ccc(I)cc3c21` [Compound 5, 7-iodocryptolepine], in data set [1], the IC50 was 14600 ± 420 nM and the “Selectivity index (SI), P. berghei liver stage with respect to Hep G cells” value worked out at 0.46. Also, in data set [2], the selectivity ratio at 48 h is 82.4. In data set [3], the IC50 was determined as 81.3 ± 2.5 nM and the IC90 amounted to 113 ± 11 nM. In data set [4], the IC50 was found to be 180 ± 10 nM.
As for `C[n+]1c2ccccc2cc2[n-]c3c(I)cc(I)cc3c21` [Compound 6, 7,9-diiodocryptolepine], the IC50 in data set [5] (Plasmodium falciparum, NF54, 48 h, read-out: Activity against late-stage gametocytes IC50) was 2200 ± 20 nM; in data set [1], 6130 ± 620 nM; in data set [3], 59 ± 13 nM; in data set [4], 180 ± 20 nM. In addition, in data set [5] (SI with respect to Hep G cells), the “Selectivity index (SI), late-stage gametocytes with respect to Hep G cells” value was 13 and 12.8. Moreover, in data set [1], the “Selectivity index (SI), P. berghei liver stage with respect to Hep G cells” value is recorded as 4.6. The selectivity ratio at 48 h in data set [2] was 478. The IC90 in data set [3] was 114 ± 11 nM.
